Changes are numbered by the printed parent chain. Where two headings read alike, the source gives them in different places.

Data on eight molecules can be found in PMC5587309, “Involvement of arginine 878 together with Ca^2+ in mouse aminopeptidase A substrate specificity for N-terminal acidic amino-acid residues” (PLoS ONE, 2017).

Holding throughout (format): biochemical
Test [1] has as its target T1, wild-type mAPA (Mus musculus, UniProt P16406).
T1 construct: made in house; host or cells: stably transfected CHO-K1 cells
T1 sequence (P16406 1-945): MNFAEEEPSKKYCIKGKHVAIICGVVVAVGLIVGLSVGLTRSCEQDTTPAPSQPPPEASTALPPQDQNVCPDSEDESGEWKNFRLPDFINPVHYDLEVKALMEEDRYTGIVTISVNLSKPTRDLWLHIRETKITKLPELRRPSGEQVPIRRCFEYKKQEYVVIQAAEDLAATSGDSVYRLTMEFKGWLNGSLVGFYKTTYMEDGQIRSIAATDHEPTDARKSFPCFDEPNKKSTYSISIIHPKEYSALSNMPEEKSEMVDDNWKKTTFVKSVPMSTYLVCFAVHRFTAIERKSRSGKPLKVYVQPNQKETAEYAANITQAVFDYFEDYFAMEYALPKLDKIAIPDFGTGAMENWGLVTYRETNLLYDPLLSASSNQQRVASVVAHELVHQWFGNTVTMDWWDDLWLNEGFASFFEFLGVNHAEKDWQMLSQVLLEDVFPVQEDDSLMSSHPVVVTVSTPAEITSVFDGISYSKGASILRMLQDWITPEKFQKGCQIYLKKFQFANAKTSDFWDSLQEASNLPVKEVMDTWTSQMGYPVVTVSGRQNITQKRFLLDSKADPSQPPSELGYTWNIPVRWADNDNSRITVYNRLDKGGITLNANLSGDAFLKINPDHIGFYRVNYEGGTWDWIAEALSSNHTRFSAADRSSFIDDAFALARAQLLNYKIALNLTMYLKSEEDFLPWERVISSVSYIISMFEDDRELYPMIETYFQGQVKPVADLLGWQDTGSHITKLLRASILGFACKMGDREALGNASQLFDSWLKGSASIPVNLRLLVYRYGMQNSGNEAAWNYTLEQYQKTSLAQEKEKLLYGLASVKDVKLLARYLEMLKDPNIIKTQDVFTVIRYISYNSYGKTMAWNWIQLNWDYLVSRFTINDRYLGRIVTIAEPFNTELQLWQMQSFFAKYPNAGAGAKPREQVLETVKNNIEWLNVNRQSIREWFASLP
Description: Inhibition of GluNA hydrolysis by purified recombinant wild-type His-mAPA. Particulars: wild-type mAPA; for Ki: 0.5 mM GluNA, read-out: Ki. How it is done:
(§1) Enzyme assays were carried out for wild-type and mutated His-mAPAs in 50 mM Tris-HCl buffer, pH 7.4, with or without 4 mM CaCl2, by monitoring the rate of hydrolysis of GluNA, as previously described. The sensitivity to Ca^2+ of purified wild-type and mutated His-mAPA was determinated by incubating 0.5 mM GluNA with 0 to 4 mM CaCl2 in a final volume of 100 μl of 50 mM Tris-HCl buffer, pH 7.4. All the assays were performed in black 96-well plates (solid black 96-well flat-bottomed non-treated plates with no lid; Corning Costar). All of the enzymatic studies were performed such that substrate hydrolysis rates were maintained below 10% (initial rate conditions). The kinetic curves were monitored by following the increase in fluorescence at 460 nm (lex = 330 nm), induced by the release of the β-naphthylamide fluorogenic part of the substrate by APA. Fluorescence signals were monitored by counting photons with a spectrophotometer (Fusion universal microplate analyser; Packard) equipped with a temperature control device and a plate shaker. The kinetic parameters (Km and kcat) were determined from Michaelis-Menten plots, using GraphPad Prism 4 software (GraphPad) with a final concentration of substrate (GluNA) from 0.005 to 5 mM with or without 4 mM Ca^2+. For evaluation of the substrate specificity of APA with or without 4 mM Ca^2+, the rate of hydrolysis of […] additional substrates, α-L-aspartate-β-naphthylamide (AspNA), α-L-alanine-β-naphthylamide (AlaNA) and basic α-L-lysine-β-naphthylamide (LysNA), was determined under the same experimental conditions as described for GluNA. The sensitivity of wild-type and mutated His-mAPAs to inhibition by [(3S)-3-amino-4-sulfanyl-butane-1-sulfonic acid] (EC33), glutamate-thiol (GluSH), glutamate-phosphonic-acid (GluPO3H2), methionine-thiol (MetSH) and lysine-thiol (LysSH) was determined by establishing dose-dependent inhibition curves for a final GluNA concentration of 0.5 mM in the presence or absence of 4 mM CaCl2. These compounds being linear competitive inhibitors, their Ki were calculated from the formula Ki = IC50/ (1+ [GluNA]/Km).

The next test addresses T2, R878K mutated mAPA (Mus musculus, UniProt P16406, R878K).
T2 construct: made in house; host or cells: stably transfected CHO-K1 cells
T2 sequence (P16406 1-945 R878K): T1 sequence (P16406 1-945) with R878K
In words: Kinetic parameters of substrate hydrolysis by R878K His-mAPA. How it is done: as §1

The target of test [2] is T1, wild-type mAPA. Description: Kinetic parameters of substrate hydrolysis by wild-type His-mAPA. Particulars: for Km / kcat: wild type mAPA. How it is done:
as §1

One may read the Ki as the equilibrium dissociation constant of an inhibitor or competing ligand from its target. `N[C@H](CS)CCS(=O)(=O)O` [EC33, (3S)‐3‐amino‐4‐sulfanylbutane‐1‐sulfonic acid]: the inhibition constant (Ki) at wild-type mAPA [1] (4 mM Ca2+) worked out at 268 ± 22 nM.

Turning to `N[C@H](CS)CCC(=O)O` [GluSH, (4S)-4-amino-5-sulfanylpentanoic acid], the “enhancement of inhibitory potency by 4 mM Ca2+ compared to Ki in the absence of Ca2+” value on wild-type mAPA [1] is 5.0 fold. Also, the results for the Ki on wild-type mAPA [1] (4 mM Ca2+) and on wild-type mAPA [1] (absence of calcium) were 314 ± 33 nM and 1570 ± 270 nM, respectively.

For orientation: Km means the concentration of substrate that gives half-maximal velocity. As usually defined, the kcat is the maximal rate divided by the concentration of active sites. In the case of `C[C@H](N)C(=O)Nc1ccc2ccccc2c1` [HAlaβNA, α-L-alanine-β-naphthylamide], the Km was 821 ± 142 µM on R878K mutated mAPA (4 mM Ca2+), 670 ± 25.2 µM on R878K mutated mAPA (no Ca2+), 321 ± 41 µM at wild-type mAPA [2] (4 mM Ca2+) and 394 ± 20 µM on wild-type mAPA [2] (no Ca2+). Moreover, the kcat at R878K mutated mAPA (4 mM Ca2+) is 26.2 ± 1.5 s⁻¹; on R878K mutated mAPA (no Ca2+) it was 27.1 ± 4.8 s⁻¹; on wild-type mAPA [2] (4 mM Ca2+), 17.4 ± 0.6 s⁻¹; on wild-type mAPA [2] (no Ca2+), 21.6 ± 0.5 s⁻¹.

On to `N[C@@H](CC(=O)O)C(=O)Nc1ccc2ccccc2c1` [HAspβNA, α-L-aspartate-β-naphthylamide], for which the Km at R878K mutated mAPA (4 mM Ca2+) is 202 ± 5.7 µM; on R878K mutated mAPA (no Ca2+), 3150 ± 328 µM; at wild-type mAPA [2] (4 mM Ca2+) it was 54 ± 1.4 µM; on wild-type mAPA [2] (no Ca2+), 149 ± 15.6 µM. Also, the kcat at R878K mutated mAPA (4 mM Ca2+) was 42.2 ± 1.1 s⁻¹; on R878K mutated mAPA (no Ca2+), 0.2 ± 0.01 s⁻¹; on wild-type mAPA [2] (4 mM Ca2+), 68.1 ± 1.3 s⁻¹; on wild-type mAPA [2] (no Ca2+), 10.4 ± 0.6 s⁻¹.

For the molecule `N[C@@H](CCC(=O)O)C(=O)Nc1ccc2ccccc2c1` [HGluβNA, α-L-glutamyl-β-naphthylamide], the Km at R878K mutated mAPA (4 mM Ca2+) amounted to 269 ± 5.1 µM; at R878K mutated mAPA (no Ca2+) it was 12500 ± 1450 µM; on wild-type mAPA [2] (4 mM Ca2+) it was 39.1 ± 3.9 µM; at wild-type mAPA [2] (no Ca2+), 165 ± 13.5 µM. The kcat worked out at 135 ± 1.3 s⁻¹ on R878K mutated mAPA (4 mM Ca2+), 3.12 ± 0.4 s⁻¹ at R878K mutated mAPA (no Ca2+), 81.7 ± 4.0 s⁻¹ at wild-type mAPA [2] (4 mM Ca2+) and 13.9 ± 0.1 s⁻¹ at wild-type mAPA [2] (no Ca2+). Moreover, the “decrease in the affinity of the enzyme for the substrate compared to wild-type (factor)” value on R878K mutated mAPA (presence of Ca2+) is given as 6. Further, at wild-type mAPA [2] (wild-type APA, 4 mM Ca2+ vs no Ca2+), the “increase of cleavage efficiency (kcat/Km) by addition of Ca2+” value is given as 25 fold.

For `NCCCC[C@H](N)C(=O)Nc1ccc2ccccc2c1` [HLysβNA, α-L-lysine-β-naphthylamide], the Km at R878K mutated mAPA (4 mM Ca2+) was found to be 229 ± 16.2 µM; at R878K mutated mAPA (no Ca2+), 336 ± 54.3 µM; on wild-type mAPA [2] (4 mM Ca2+) it was 244 ± 29.5 µM; on wild-type mAPA [2] (no Ca2+), 304 ± 49.7 µM. Also, the kcat is 24.4 ± 0.5^n.s s-1 at R878K mutated mAPA (4 mM Ca2+), 9.0 ± 0.5 s⁻¹ on R878K mutated mAPA (no Ca2+), 25.8 ± 0.2 s⁻¹ at wild-type mAPA [2] (4 mM Ca2+) and 16.4 ± 0.7 s⁻¹ on wild-type mAPA [2] (no Ca2+).

In the case of `NCCCC[C@H](N)CS` [LysSH, (2S)-2,6-diaminohexane-1-thiol], the values for the Ki on wild-type mAPA [1] (4 mM Ca2+) and at wild-type mAPA [1] (absence of calcium) were 13400 ± 1700 nM and 317 ± 30 nM, respectively.

Regarding `CSCC[C@H](N)CS` [MetSH], the Ki on wild-type mAPA [1] (4 mM Ca2+) stood at 9180 ± 770 nM; at wild-type mAPA [1] (absence of calcium), 750 ± 46 nM.
